{"source": "patent US12202835B2", "about": "“Substituted aromatic ring-linked dioxinoquinazolines and dioxinoquinolines as kinase inhibitors” (BEIJING SCITECH-MQ PHARMACEUTICALS LIMITED, priority 2018, dated 2025)", "type_in_all_cases": "biochemical", "key": {"VEGFR-2 kinase": {"target": "VEGFR-2 kinase (Homo sapiens (Human), UniProt P35968)", "sequence (P35968 20-1356)": "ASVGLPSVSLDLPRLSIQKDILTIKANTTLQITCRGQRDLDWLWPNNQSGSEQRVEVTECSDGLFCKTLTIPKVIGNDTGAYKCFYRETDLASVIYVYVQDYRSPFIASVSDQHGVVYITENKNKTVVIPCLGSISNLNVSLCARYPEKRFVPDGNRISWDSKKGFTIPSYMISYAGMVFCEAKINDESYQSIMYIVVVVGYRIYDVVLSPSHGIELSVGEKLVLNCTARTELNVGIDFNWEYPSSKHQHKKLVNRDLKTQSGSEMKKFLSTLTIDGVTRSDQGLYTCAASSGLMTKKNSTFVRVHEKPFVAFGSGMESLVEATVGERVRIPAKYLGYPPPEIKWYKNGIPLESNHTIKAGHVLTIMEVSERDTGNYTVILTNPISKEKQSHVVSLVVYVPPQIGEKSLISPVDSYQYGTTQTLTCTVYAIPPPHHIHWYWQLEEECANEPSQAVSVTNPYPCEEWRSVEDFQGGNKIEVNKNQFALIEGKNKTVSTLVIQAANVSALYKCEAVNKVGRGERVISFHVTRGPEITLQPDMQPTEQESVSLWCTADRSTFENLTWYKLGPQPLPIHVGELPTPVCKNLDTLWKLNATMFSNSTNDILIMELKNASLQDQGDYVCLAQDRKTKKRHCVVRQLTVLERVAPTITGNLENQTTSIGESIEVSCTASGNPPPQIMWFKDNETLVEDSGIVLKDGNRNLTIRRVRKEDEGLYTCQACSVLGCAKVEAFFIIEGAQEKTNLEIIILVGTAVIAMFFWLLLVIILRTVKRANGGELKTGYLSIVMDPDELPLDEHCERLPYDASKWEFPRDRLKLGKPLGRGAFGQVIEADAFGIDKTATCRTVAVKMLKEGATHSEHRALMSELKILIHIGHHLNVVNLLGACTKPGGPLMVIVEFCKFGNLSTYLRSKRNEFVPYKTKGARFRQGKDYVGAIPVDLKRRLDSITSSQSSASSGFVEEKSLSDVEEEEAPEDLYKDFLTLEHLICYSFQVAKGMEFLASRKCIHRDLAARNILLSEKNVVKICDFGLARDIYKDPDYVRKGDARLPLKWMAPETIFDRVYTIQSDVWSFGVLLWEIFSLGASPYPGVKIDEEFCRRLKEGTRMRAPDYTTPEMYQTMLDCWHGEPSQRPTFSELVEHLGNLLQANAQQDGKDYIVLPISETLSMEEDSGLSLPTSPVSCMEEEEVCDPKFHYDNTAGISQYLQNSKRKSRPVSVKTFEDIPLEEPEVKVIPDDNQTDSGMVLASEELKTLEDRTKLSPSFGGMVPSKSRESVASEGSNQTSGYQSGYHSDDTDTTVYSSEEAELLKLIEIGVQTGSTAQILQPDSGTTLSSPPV", "assay": "Assay of small molecular compounds for inhibiting the activity of VEGFR-2 kinase (LANCE TR-FRET)", "conditions": "read-out: VEGFR2 IC50", "method_in_brief": "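LANCE TR-FRET with human VEGFR-2 (2× stock 0.5 nM) preincubated 30 min with compound (final 2500 to 0.042 nM, 11-point 3-fold), then ULight-JAK-1 (Tyr1023) peptide/ATP added (4× stocks 200 nM/40 μM). Reaction 60 min room temperature, 4% DMSO; IC50 from inhibition-rate curve.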"}, "MER kinase": {"target": "MER kinase (Homo sapiens (Human), UniProt Q12866)", "sequence (Q12866 21-999)": "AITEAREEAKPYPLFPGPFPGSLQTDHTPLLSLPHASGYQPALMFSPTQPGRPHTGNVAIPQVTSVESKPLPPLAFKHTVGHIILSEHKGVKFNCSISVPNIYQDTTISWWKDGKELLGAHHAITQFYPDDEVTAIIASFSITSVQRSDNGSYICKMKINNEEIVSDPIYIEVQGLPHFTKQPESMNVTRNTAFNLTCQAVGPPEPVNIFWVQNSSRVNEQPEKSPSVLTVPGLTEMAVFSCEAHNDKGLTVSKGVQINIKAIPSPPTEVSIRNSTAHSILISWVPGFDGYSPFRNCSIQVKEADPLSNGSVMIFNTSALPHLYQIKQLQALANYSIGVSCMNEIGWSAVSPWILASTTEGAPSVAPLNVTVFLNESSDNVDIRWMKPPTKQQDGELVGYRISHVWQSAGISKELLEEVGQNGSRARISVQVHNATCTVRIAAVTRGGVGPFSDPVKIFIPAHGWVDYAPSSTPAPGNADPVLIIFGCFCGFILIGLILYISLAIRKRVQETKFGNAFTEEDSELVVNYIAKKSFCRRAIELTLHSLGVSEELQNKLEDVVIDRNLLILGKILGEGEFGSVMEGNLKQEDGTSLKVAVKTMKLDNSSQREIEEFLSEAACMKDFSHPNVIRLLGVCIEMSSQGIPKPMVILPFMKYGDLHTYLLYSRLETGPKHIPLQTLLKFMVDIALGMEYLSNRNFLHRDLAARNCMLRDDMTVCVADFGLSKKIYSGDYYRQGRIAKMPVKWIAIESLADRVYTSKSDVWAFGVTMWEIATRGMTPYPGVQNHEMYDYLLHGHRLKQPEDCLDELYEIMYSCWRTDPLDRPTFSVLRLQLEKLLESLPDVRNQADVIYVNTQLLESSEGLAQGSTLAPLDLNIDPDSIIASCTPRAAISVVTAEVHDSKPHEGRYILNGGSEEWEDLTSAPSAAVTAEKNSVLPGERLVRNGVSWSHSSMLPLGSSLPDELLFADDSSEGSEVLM", "assay": "Assay of small molecular compounds for inhibiting the activity of MER kinase (LANCE TR-FRET)", "method_in_brief": "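MER kinase preincubated 5 min at RT with compound (11 points, 0.042-2500 nM final), then ULight-poly GT and ATP added (4× stocks 200 nM and 20 μM) for 60 min at RT, 1% DMSO. Phosphorylation detected by LANCE TR-FRET; IC50 from % inhibition versus controls.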"}, "TRKA kinase": {"target": "TRKA kinase (Homo sapiens (Human), UniProt P04629)", "sequence (P04629 33-796)": "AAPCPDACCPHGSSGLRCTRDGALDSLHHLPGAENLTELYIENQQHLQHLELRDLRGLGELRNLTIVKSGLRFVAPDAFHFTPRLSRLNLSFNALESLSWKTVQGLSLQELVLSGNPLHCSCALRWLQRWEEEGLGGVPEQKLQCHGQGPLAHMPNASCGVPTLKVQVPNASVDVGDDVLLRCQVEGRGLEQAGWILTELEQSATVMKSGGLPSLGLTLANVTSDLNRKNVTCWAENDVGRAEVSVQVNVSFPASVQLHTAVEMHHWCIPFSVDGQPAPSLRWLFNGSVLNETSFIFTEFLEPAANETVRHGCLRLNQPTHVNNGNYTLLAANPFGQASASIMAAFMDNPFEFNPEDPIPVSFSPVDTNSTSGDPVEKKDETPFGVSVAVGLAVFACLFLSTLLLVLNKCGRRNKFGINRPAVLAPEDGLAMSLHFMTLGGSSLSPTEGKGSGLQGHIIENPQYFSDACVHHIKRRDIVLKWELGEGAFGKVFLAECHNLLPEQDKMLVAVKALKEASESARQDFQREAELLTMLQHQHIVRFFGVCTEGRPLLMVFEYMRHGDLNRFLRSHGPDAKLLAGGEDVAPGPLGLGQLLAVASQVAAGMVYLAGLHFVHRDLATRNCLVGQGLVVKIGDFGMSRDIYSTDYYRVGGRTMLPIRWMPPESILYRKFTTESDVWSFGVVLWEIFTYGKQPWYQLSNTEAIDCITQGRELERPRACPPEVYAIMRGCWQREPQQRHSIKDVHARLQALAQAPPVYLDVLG", "assay": "Assay of small molecular compounds for inhibiting the activity of TRKA kinase (LANCE TR-FRET)", "method_in_brief": "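LANCE TR-FRET with ULight-TK peptide; compounds pre-incubated 5 min with TRKA (2× solution 2 nM), then substrate/ATP added (4× mix: 400 nM peptide, 40 μM ATP). Reaction 60 min at room temperature in dark, 1% DMSO final; stopped, detection developed 60 min, signal read.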"}}, "data": [{"smiles": "CCOc1ccn(-c2ccc(F)cc2)c(=O)c1C(=O)Nc1ccc(Oc2ccnc3cc(OCC(C)C)c4c(c23)OCCO4)c(F)c1", "note": "[Example 58, N-(4-((5-(isobutyloxy)-2,3-dihydro-[1,4]dioxino[2,3-f]quinolin-10-yl)oxy)-3-fluorophenyl)-4-ethoxy-1-(4-fluorophenyl)-2-oxo-1,2-dihydropyridine-3-carboxamide]", "values": [{"measurement": "IC50", "setting": "VEGFR-2 kinase", "value": "≤ 50", "unit": "nM"}, {"measurement": "IC50", "setting": "MER kinase", "value": "≤ 50", "unit": "nM"}, {"measurement": "IC50", "setting": "TRKA kinase", "value": "50 to 500", "unit": "nM"}]}, {"smiles": "CCOc1ccn(-c2ccc(F)cc2)c(=O)c1C(=O)Nc1ccc(Oc2ccnc3cc(OCC4CC4)c4c(c23)OCCO4)c(F)c1", "note": "[Example 59, N-(4-((5-(cyclopropylmethoxy)-2,3-dihydro-[1,4]dioxino[2,3-f]quinolin-10-yl)oxy)-3-fluorophenyl)-4-ethoxy-1-(4-fluorophenyl)-2-oxo-1,2-dihydropyridine-3-carboxamide]", "values": [{"measurement": "IC50", "setting": "VEGFR-2 kinase", "value": "≤ 50", "unit": "nM"}, {"measurement": "IC50", "setting": "MER kinase", "value": "≤ 50", "unit": "nM"}, {"measurement": "IC50", "setting": "TRKA kinase", "value": "50 to 500", "unit": "nM"}]}, {"smiles": "CCOc1cc2nccc(Oc3ccc(NC(=O)c4c(OCC)ccn(-c5ccc(F)cc5)c4=O)cc3F)c2c2c1OCCO2", "note": "[Example 62, N-(4-((5-ethoxy-2,3-dihydro-[1,4]dioxino[2,3-f]quinolin-10-yl)oxy)-3-fluorophenyl)-4-ethoxy-1-(4-fluorophenyl)-2-oxo-1,2-dihydropyridine-3-carboxamide]", "values": [{"measurement": "IC50", "setting": "VEGFR-2 kinase", "value": "≤ 50", "unit": "nM"}, {"measurement": "IC50", "setting": "MER kinase", "value": "≤ 50", "unit": "nM"}, {"measurement": "IC50", "setting": "TRKA kinase", "value": "< 50", "unit": "nM"}]}, {"smiles": "CCOc1ccn(-c2ccc(F)cc2)c(=O)c1C(=O)Nc1ccc(Oc2ccnc3cc(OC(C)C)c4c(c23)OCCO4)c(F)c1", "note": "[Example 63, N-(4-((5-isopropoxy-2,3-dihydro-[1,4]dioxino[2,3-f]quinolin-10-yl)oxy)-3-fluorophenyl)-4-ethoxy-1-(4-fluorophenyl)-2-oxo-1,2-dihydropyridine-3-carboxamide]", "values": [{"measurement": "IC50", "setting": "VEGFR-2 kinase", "value": "50 to 500", "unit": "nM"}, {"measurement": "IC50", "setting": "MER kinase", "value": "≤ 50", "unit": "nM"}, {"measurement": "IC50", "setting": "TRKA kinase", "value": "50 to 500", "unit": "nM"}]}, {"smiles": "CCOc1ccn(-c2ccc(F)cc2)c(=O)c1C(=O)Nc1ccc(Oc2ccnc3cc(OC4COC4)c4c(c23)OCCO4)c(F)c1", "note": "[Example 64, N-(4-((5-((oxetan-3-yl)oxy)-2,3-dihydro-[1,4]dioxino[2,3-f]quinolin-10-yl)oxy)-3-fluorophenyl)-4-ethoxy-1-(4-fluorophenyl)-2-oxo-1,2-dihydropyridine-3-carboxamide]", "values": [{"measurement": "IC50", "setting": "VEGFR-2 kinase", "value": "50 to 500", "unit": "nM"}, {"measurement": "IC50", "setting": "MER kinase", "value": "≤ 50", "unit": "nM"}, {"measurement": "IC50", "setting": "TRKA kinase", "value": "< 50", "unit": "nM"}]}, {"smiles": "CCOc1ccn(-c2ccc(F)cc2)c(=O)c1C(=O)Nc1ccc(Oc2ccnc3cc(OC4CCOC4)c4c(c23)OCCO4)c(F)c1", "note": "(stereo not drawn) [Example 65, N-(4-((5-((tetrahydrofuran-3-yl)oxy)-2,3-dihydro-[1,4]dioxino[2,3-f]quinolin-10-yl)oxy)-3-fluorophenyl)-4-ethoxy-1-(4-fluorophenyl)-2-oxo-1,2-dihydropyridine-3-carboxamide]", "values": [{"measurement": "IC50", "setting": "VEGFR-2 kinase", "value": "50 to 500", "unit": "nM"}, {"measurement": "IC50", "setting": "MER kinase", "value": "≤ 50", "unit": "nM"}, {"measurement": "IC50", "setting": "TRKA kinase", "value": "< 50", "unit": "nM"}]}, {"smiles": "CCOc1ccn(-c2ccc(F)cc2)c(=O)c1C(=O)Nc1ccc(Oc2ccnc3cc(OC4CCOCC4)c4c(c23)OCCO4)c(F)c1", "note": "[Example 66, N-(4-((5-((tetrahydropyran-4-yl)oxy)-2,3-dihydro-[1,4]dioxino[2,3-f]quinolin-10-yl)oxy)-3-fluorophenyl)-4-ethoxy-1-(4-fluorophenyl)-2-oxo-1,2-dihydropyridine-3-carboxamide]", "values": [{"measurement": "IC50", "setting": "VEGFR-2 kinase", "value": "50 to 500", "unit": "nM"}, {"measurement": "IC50", "setting": "MER kinase", "value": "≤ 50", "unit": "nM"}, {"measurement": "IC50", "setting": "TRKA kinase", "value": "< 50", "unit": "nM"}]}, {"smiles": "CCOc1ccn(-c2ccc(F)cc2)c(=O)c1C(=O)Nc1ccc(Oc2ccnc3cc(OCCCN4CCC(C)(C)CC4)c4c(c23)OCCO4)c(F)c1", "note": "[Example 67, N-(4-((5-(3-(4,4-dimethylpiperidin-1-yl)propoxy)-2,3-dihydro-[1,4]dioxino[2,3-f]quinolin-10-yl)oxy)-3-fluorophenyl)-4-ethoxy-1-(4-fluorophenyl)-2-oxo-1,2-dihydropyridine-3-carboxamide]", "values": [{"measurement": "IC50", "setting": "VEGFR-2 kinase", "value": "≤ 50", "unit": "nM"}, {"measurement": "IC50", "setting": "MER kinase", "value": "≤ 50", "unit": "nM"}, {"measurement": "IC50", "setting": "TRKA kinase", "value": "< 50", "unit": "nM"}]}]}
